Source: US20240148627A1, “[…] FOR THE SKIN” (priority 2021, published 2024)

Test system: Vaccinia virus Elstree strain
Assay type: cell-based

**Q.** With C=O [formaldehyde] as the compound, how does the “Reference trial inactivation of the virus” value read?
**A.** 3.13E+00 log DIT C50
